These results are taken from patent US20050203172A1, “Novel compounds” (priority 2002, published 2005).

Structures are written as SMILES. Structures can show the parent of a compound that is named as a salt.

The subject of the experiment is human form of induced nitric oxide synthase in DLD-1 cells. Kind of experiment: Screen 3: nitrite accumulation (Griess) in cytokine-induced DLD-1 cells. Type of experiment: cell-based. As to conditions: DLD-1 cells induced with gamma-IFN, TNF-alpha, IL-6, IL-1-beta, 5 hours with compound, read-out: IC50 (inhibition of nitrite accumulation). The protocol:
The human colorectal carcinoma cell line, DLD-1 (obtained from the European Collection of Animal Cell Culture—cell line number 90102540) was routinely grown in RPMI 1640 supplemented with 10% (v/v) foetal bovine serum, and 2 mM L-glutamine, at 37° C. in 5% CO2. Nitric oxide synthase was induced in cells by addition of medium containing human recombinant gamma-IFN (1000 units/ml), TNF-alpha (200 U/ml), IL-6 (200 U/ml) and IL-1-beta (250 U/ml). After incubation for 18 hours at 37° C., the medium was removed and the cells washed with warm phosphate buffered saline. Cells were incubated for a further 5 hours at 37° C./5% CO2 in RPMI 1640 containing 100 μM L-arginine and 100 μM verapamil-HCl in the presence and absence of test compounds. Nitrite accumulation was determined by mixing an equal volume of culture media with Griess reagent (10 mg/ml sulphanilamide, 1 mg N-(1-naphthyl)ethylenediamine in 1 ml 2.5% (v/v) phosphoric acid). Inhibition in the presence of compounds was calculated relative to the nitrite levels produced by untreated cells. IC50 values were estimated from a semi-log plot of % inhibition versus concentration of compound.
A general note: The Griess reaction detects nitrite, a stable product of nitric oxide.

By IC50 is commonly meant the point on the concentration scale where inhibition reaches its midpoint. In the case of `N#Cc1sccc1S[C@H](C[C@H](N)CO)c1ccccc1` [Example 1, 3-[[(1R,3S)-3-Amino-4-hydroxy-1-phenylbutyl]thio]-2-thiophenecarbonitrile oxalate], the IC50 was under 100 µM. Consider `Cc1cc(S[C@H](C[C@H](N)CO)c2ccccc2)c(C#N)s1` [Example 2, 3-[[(1R,3S)-3-Amino-4-hydroxy-1-phenylbutyl]thio]-5-methyl-2-thiophenecarbonitrile Oxalate], for which the IC50 is under 100 µM.
